Laboratory results taken from US8883797B2, “Metalloenzyme inhibitor compounds” (Viamet Pharmaceuticals, Inc., priority 2011, dated 2014).
Values after ≈ are worked out from the molar mass of the structure shown.

Experiments:
[1] = tested on: Septoria tritici (ATCC 26517); test: Minimum Inhibitory Concentration (MIC) (Septoria tritici), CLSI-based microdilution; assay type: cell-based; conditions: Zymoseptoria tritici, ATCC26517, 168 h; S. tritici ATCC 26517; 50% growth reduction; 7 days at 22 °C; read-out: Septoria Rating (MIC)
Procedure: C. Minimum Inhibitory Concentration (MIC) (Septoria tritici) Compounds of the present disclosure were assessed for their ability to inhibit the growth of a common strain of the fungal plant pathogen Septoria tritici (ATCC 26517) using a procedure based on a Clinical and Laboratory Standards Institute (CLSI) microdilution assay protocol for filamentous fungi. Stock solutions of the test compounds and standards were prepared in DMSO at 6400 μg/mL. Each stock solution was used to prepare a 2-fold dilution series ranging from 16 to 0.016 μg/mL (total of 11 compound concentrations) in RPMI-1640 (Roswell Park Memorial Institute) medium containing 3-(N-morpholino)propanesulfonic acid (MOPS) buffer and 2% DMSO. A 100 μL aliquot of the dilutions was added to columns 1 (16 μg/mL compound) through 11 (0.016 μg/mL compound) of a 96-well microtiter plate. This format was replicated in a second row of the microtiter plate. Thus, each microtiter plate could include 11 concentrations of four test or control compounds replicated twice. A 100 μL aliquot of RPMI-1640/MOPS/2% DMSO medium was added to column 12 (no compound control) of the microtiter plate. A fresh culture of S. tritici was used to prepare a solution of approximately 5×10^4 colony-forming units per milliliter (cfu/mL) in RPMI/MOPS medium without DMSO. A 100 μL aliquot of this solution was added to all 96 wells in the microtiter plate. […] The assay plates were incubated at 22° C. for seven days in the dark without shaking. […] In each case of Table 3 the rating scale is as follows: […]

[2] = tested on: Puccinia recondita tritici; test: Fungicidal activity vs. leaf rust on wheat plants (PUCCRT); assay type: in vivo, Puccinia recondita tritici=Puccinia triticina; conditions: 50 ppm spray on wheat (variety Yuma); inoculated the following day; severity evaluated 7-9 days later
Text: D. Evaluation of Fungicidal Activity Vs. Leaf Rust (Causal Agent Puccinia recondita tritici=Puccinia triticina; Bayer Code PUCCRT).
Each pot contained 3-8 seedlings. These plants were sprayed until wet with the formulated test compounds. The compounds were formulated at 50 ppm in 10 vol. % acetone plus 90 vol. % Triton X water (deionized water 99.99 wt %+0.01 wt % Triton X100), giving a “formulated test compound.” Formulated test compounds were applied to plants using a turn table sprayer fitted with two opposing air atomization nozzles which delivered approximately 1500 L/ha of spray volume. On the following day, the leaves were inoculated with an aqueous spore suspension of Puccinia recondita tritici and the plants were kept in high humidity overnight to permit spores to germinate and infect the leaf. The plants were then transferred to a greenhouse until disease developed on untreated control plants. Disease severity was evaluated 7-9 days later, depending on the speed of disease development. Compounds 4(−), 9(+), 11, 13, 18, 21, 25, 26, 27, 28, 32, 34, 37, 38, 39, 42, 43, 48, 51, 52, 56, 57, and 59 were selected for testing against PUCCRT at 50 ppm. Compounds that provided >80% disease control at 50 ppm included 4(−), 9(+), 11, 13, 18, 21, 25, 26, 27, 28, 32, 34, 37, 38, 39, 42, 43, 48, 52, 56, and 57.

C. albicans = test: Minimum Inhibitory Concentration (MIC) (C. albicans), CLSI M27-A2; assay type: cell-based; conditions: Candida albicans; about 50% growth reduction; approx. 48 h at 35 °C
Procedure: A. Minimum Inhibitory Concentration (MIC) (C. albicans) Compounds of the present disclosure were assessed for their ability to inhibit the growth of common strains of fungus, C. albicans using a standardized procedure (CLSI M27-A2). Stock solutions of the test compounds and standards were prepared in DMSO at 1,600 μg/mL (C. albicans). Eleven, serial, one-half dilutions of compounds were prepared in 96-well plates in RPMI+MOPS. The assay concentration ranges were 8-0.001 μg/mL (C. albicans). Cell suspensions of C. albicans were prepared and added to each well at concentrations of approximately 3.7×10^3 colony-forming-units per milliliter (cfu/mL). All testing was in duplicate. The inoculated plates were incubated for approximately 48 h at 35±1° C. At the completion of incubation the wells of each plate were evaluated visually for the presence of fungal growth. […] For QC purposes C. krusei isolate ATCC 6258 (4.0×10^3 cfu/mL) was included in the VOR assay.

SMILES	MIC [1] [µg/mL]	disease control [2] [%]	MIC (C. albicans) [µg/mL]
OC(Cn1cnnn1)(c1ccc(F)cc1F)C(F)(F)c1ccc2cc(Cl)ccc2n1 (stereo not drawn) [4(−), 1-(6-Chloroquinolin-2-yl)-2-(2,4-difluorophenyl)-1,1-difluoro-3-(1H-tetrazol-1-yl)propan-2-ol]	≤ 0.5	> 80	–
OC(Cn1cnnn1)(c1ccc(F)cc1F)C(F)(F)c1ccc2cc(OC(F)(F)F)ccc2n1 (stereo not drawn) [Compound 21, 2-(2,4-Difluorophenyl)-1,1-difluoro-3-(1H-tetrazol-1-yl)-1-(6-(trifluoromethoxy)quinolin-2-yl)propan-2-ol]	≤ 0.5	> 80	–
COc1ccc(-c2cnc(C(F)(F)C(O)(Cn3cnnn3)c3ccc(F)cc3F)cn2)cc1 (stereo not drawn) [Compound 48, 2-(2,4-Difluorophenyl)-1,1-difluoro-1-(5-(4-methoxyphenyl)pyrazin-2-yl)-3-(1H-tetrazol-1-yl)propan-2-ol]	≤ 0.5	> 80	–
OC(Cn1cnnn1)(c1ccc(F)cc1F)C(F)(F)c1ccc(Br)s1 (stereo not drawn) [Compound 13, 1-(5-Bromothiophen-2-yl)-2-(2,4-difluorophenyl)-1,1-difluoro-3-(1H-tetrazol-1-yl)propan-2-ol]	≤ 0.5	> 80	–
OC(Cn1cnnn1)(c1ccc(F)cc1F)C(F)(F)c1nc2ccc(Cl)cc2s1 (stereo not drawn) [Compound 11, 1-(6-Chlorobenzo[d]thiazol-2-yl)-2-(2,4-difluorophenyl)-1,1-difluoro-3-(1H-tetrazol-1-yl)propan-2-ol]	≤ 0.5	> 80	–
OC(Cn1cnnn1)(c1ccc(F)cc1F)C(F)(F)c1cnc2cc(Br)ccc2n1 (stereo not drawn) [Compound 38, 1-(6-Bromoquinoxalin-2-yl)-2-(2,4-difluorophenyl)-1,1-difluoro-3-(1H-tetrazol-1-yl)propan-2-ol]	≤ 0.5	> 80	–
OC(Cn1cnnn1)(c1ccc(F)cc1F)C(F)(F)c1cnc(CCc2ccc(F)cc2)cn1 (stereo not drawn) [Compound 52, 2-(2,4-Difluorophenyl)-1,1-difluoro-1-(5-(4-fluorophenethyl)pyrazin-2-yl)-3-(1H-tetrazol-1-yl)propan-2-ol]	≤ 0.5	> 80	–
OC(Cn1ncnn1)(c1cc(F)ccc1F)C(F)(F)c1ccc2cc(Cl)ccc2n1 (stereo not drawn) [Compound 28, 1-(6-Chloroquinolin-2-yl)-2-(2,5-difluorophenyl)-1,1-difluoro-3-(2H-tetrazol-2-yl)propan-2-ol]	≤ 0.5	> 80	–
OC(Cn1cnnn1)(c1ccc(F)cc1F)C(F)(F)c1ccc(-c2ccc(OC(F)(F)F)cc2)nn1 (stereo not drawn) [Compound 57, 2-(2,4-Difluorophenyl)-1,1-difluoro-3-(1H-tetrazol-1-yl)-1-(6-(4-(trifluoromethoxy)phenyl)pyridazin-3-yl)propan-2-ol]	≤ 0.5	> 80	–
OC(Cn1cnnn1)(c1ccc(F)cc1)C(F)(F)c1ccc2cc(Cl)ccc2n1 (stereo not drawn) [Compound 32, 1-(6-Chloroquinolin-2-yl)-1,1-difluoro-2-(4-fluorophenyl)-3-(1H-tetrazol-1-yl)propan-2-ol]	≤ 0.5	> 80	–
OC(Cn1cnnn1)(c1ccc(F)cc1F)C(F)(F)c1cc2ccc(Cl)cc2cn1 (stereo not drawn) [Compound 37, 1-(7-Chloroisoquinolin-3-yl)-2-(2,4-difluorophenyl)-1,1-difluoro-3-(1H-tetrazol-1-yl)propan-2-ol]	≤ 0.5	> 80	–
OC(Cn1cnnn1)(c1ccc(F)cc1F)C(F)(F)c1cnc(-c2ccc(OC(F)F)cc2)cn1 (stereo not drawn) [Compound 39, 1-(5-(4-(Difluoromethoxy)phenyl)pyrazin-2-yl)-2-(2,4-difluorophenyl)-1,1-difluoro-3-(1H-tetrazol-1-yl)propan-2-ol]	≤ 0.5	> 80	–
OC(Cn1cnnn1)(c1ccc(F)cc1F)C(F)(F)c1cnc(-c2ccc(Br)cc2)cn1 (stereo not drawn) [Compound 43, 1-(5-(4-Bromophenyl)pyrazin-2-yl)-2-(2,4-difluorophenyl)-1,1-difluoro-3-(1H-tetrazol-1-yl)propan-2-ol]	≤ 0.5	> 80	–
C[C@@H](c1ncncc1F)[C@](O)(Cn1cncn1)c1ccc(F)cc1F [Voriconazole, reference compound]	–	–	0.016 (≈ 0.0458 µM)
Cc1ccc2nc(C(F)(F)C(O)(Cn3cnnn3)c3ccc(F)cc3F)ccc2c1 (stereo not drawn) [Compound 26, 2-(2,4-Difluorophenyl)-1,1-difluoro-1-(6-methylquinolin-2-yl)-3-(1H-tetrazol-1-yl)propan-2-ol]	≤ 0.5	> 80	–
OC(Cn1cnnn1)(c1ccc(F)cc1F)C(F)(F)c1ccc2cc(Br)ccc2n1 (stereo not drawn) [9(+), 1-(6-Bromoquinolin-2-yl)-2-(2,4-difluorophenyl)-1,1-difluoro-3-(1H-tetrazol-1-yl)propan-2-ol]	≤ 0.5	> 80	–
OC(Cn1cnnn1)(c1ccc(F)cc1F)C(F)(F)c1ccc(-c2ccc(C(F)(F)F)cc2)nn1 (stereo not drawn) [Compound 56, 2-(2,4-Difluorophenyl)-1,1-difluoro-3-(1H-tetrazol-1-yl)-1-(6-(4-(trifluoromethyl)phenyl)pyridazin-3-yl)propan-2-ol]	0.5 to 1.5 (≈ 1 to 3.01 µM)	> 80	–
OC(Cn1cnnn1)(c1ccc(F)cc1F)C(F)(F)c1nc2ccc(Br)cc2s1 (stereo not drawn) [Compound 27, 1-(6-Bromobenzo[d]thiazol-2-yl)-2-(2,4-difluorophenyl)-1,1-difluoro-3-(1H-tetrazol-1-yl)propan-2-ol]	≤ 0.5	> 80	–
OC(Cn1cnnn1)(c1ccc(F)cc1F)C(F)(F)c1ccc2cc(C(F)(F)F)ccc2n1 (stereo not drawn) [Compound 18, 2-(2,4-Difluorophenyl)-1,1-difluoro-3-(1H-tetrazol-1-yl)-1-(6-(trifluoromethyl)quinolin-2-yl)propan-2-ol]	≤ 0.5	> 80	–
OC(Cn1cnnn1)(c1ccc(F)cc1F)C(F)(F)c1cnc(-c2ccc(OC(F)(F)F)cc2)cn1 (stereo not drawn) [Compound 42, 2-(2,4-Difluorophenyl)-1,1-difluoro-3-(1H-tetrazol-1-yl)-1-(5-(4-(trifluoromethoxy)phenyl)pyrazin-2-yl)propan-2-ol]	≤ 0.5	> 80	–
OC(Cn1cnnn1)(c1ccc(F)cc1F)C(F)(F)c1ccc2cc(C(F)F)ccc2n1 (stereo not drawn) [Compound 25, 1-(6-(Difluoromethyl)quinolin-2-yl)-2-(2,4-difluorophenyl)-1,1-difluoro-3-(1H-tetrazol-1-yl)propan-2-ol]	≤ 0.5	> 80	–
OC(Cn1cnnn1)(c1ccc(Cl)cc1F)C(F)(F)c1cnc2cc(Cl)ccc2n1 (stereo not drawn) [Compound 34, 2-(4-Chloro-2-fluorophenyl)-1-(6-chloroquinoxalin-2-yl)-1,1-difluoro-3-(1H-tetrazol-1-yl)propan-2-ol]	≤ 0.5	> 80	–
OC(Cn1cnnc1)(c1ccc(F)cc1F)C(F)(F)c1ccc2cc(Cl)ccc2n1 (stereo not drawn) [Compound 35, 1-(6-Chloroquinolin-2-yl)-2-(2,4-difluorophenyl)-1,1-difluoro-3-(4H-1,2,4-triazol-4-yl)propan-2-ol]	1.5 to 4 (≈ 3.43 to 9.16 µM)	–	–
OC(Cn1cnnn1)(c1ccc(F)cc1F)C(F)(F)c1cnc2cc(Cl)ccc2n1 (stereo not drawn) [10(−), 1-(6-Chloroquinoxalin-2-yl)-2-(2,4-difluorophenyl)-1,1-difluoro-3-(1H-tetrazol-1-yl)propan-2-ol]	≤ 0.5	–	–
